Among the test systems are SNB-75 CNS; TK-10 renal; OVCAR-8 ovarian; OVCAR-3 ovarian; 786-0 renal; COLO 205 colon; UACC-257 melanoma; SK-MEL-28 melanoma.
Holding throughout (experiment): NCI anticancer screen, dose series, 48 h

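1) Cells in 96-well plates. 2) Compound, 48 h, 5 concentrations. 3) Linear interpolation between surrounding doses. 4) Unreached endpoint = highest concentration. GI50 is the concentration that inhibits growth by half. TGI is the concentration that stops growth completely.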

As to `COc1cc(/C=C/c2ccc3c(Br)cc(Br)c(O)c3n2)ccc1O`, the GI50 with SNB-75 CNS was 2.5 µM; with TK-10 renal, 3.84 µM; with OVCAR-8 ovarian, 2.14 µM; in the experiment on OVCAR-3 ovarian it was 1.66 µM; in the experiment on 786-0 renal it was 1.69 µM; in the experiment on COLO 205 colon it was 5.01 µM. Further, the results for the GI50 in the experiment with UACC-257 melanoma and with SK-MEL-28 melanoma were 7.61 µM and 3.16 µM, respectively. In addition, the TGI in the experiment with SNB-75 CNS turned out to be 10.1 µM; in the experiment on TK-10 renal, 15.5 µM; in the experiment with OVCAR-8 ovarian, 15.5 µM; in the experiment with OVCAR-3 ovarian, 9.12 µM; with 786-0 renal it was 6.93 µM; in the experiment on COLO 205 colon, 17.2 µM. Further, the TGI with UACC-257 melanoma stood at 22 µM; with SK-MEL-28 melanoma, 12.9 µM.
With `CCc1c(C)nc2sc3c(N)ncnc3c2c1C`, the GI50 in the experiment with SNB-75 CNS, with TK-10 renal, with OVCAR-8 ovarian, with OVCAR-3 ovarian, in the experiment with 786-0 renal and with COLO 205 colon was above 25 µM in each case. Moreover, the GI50 with UACC-257 melanoma and in the experiment on SK-MEL-28 melanoma was above 25 µM each time. For the same compound, the TGI in the experiment on SNB-75 CNS, in the experiment on TK-10 renal, with OVCAR-8 ovarian, with OVCAR-3 ovarian, with 786-0 renal and in the experiment with COLO 205 colon was above 25 µM in each case. Further, the TGI with UACC-257 melanoma and with SK-MEL-28 melanoma was above 25 µM each time.
Consider `C[C@@H]1O[C@@H](O[C@@H]2[C@@H](O)[C@H](OCCc3ccc(O)c(O)c3)O[C@H](CO)[C@H]2OC(=O)/C=C/c2ccc(O)c(O)c2)[C@H](O)[C@H](OC2OC[C@](O)(CO)[C@H]2O)[C@H]1O` (some centres not stated), for which the GI50 in the experiment with SNB-75 CNS is above 100 µM; in the experiment on TK-10 renal, above 100 µM; in the experiment with OVCAR-8 ovarian, 18.7 µM; with OVCAR-3 ovarian, 35 µM; with 786-0 renal it was 84.7 µM; in the experiment with COLO 205 colon, above 100 µM. The GI50 in the experiment with UACC-257 melanoma is 27 µM; in the experiment on SK-MEL-28 melanoma it was above 100 µM. Besides, the TGI was above 100 µM in the experiment with SNB-75 CNS; above 100 µM with TK-10 renal; 40 µM in the experiment on OVCAR-8 ovarian; above 100 µM in the experiment with OVCAR-3 ovarian; above 100 µM in the experiment with 786-0 renal; above 100 µM in the experiment with COLO 205 colon. For the same compound, the TGI in the experiment on UACC-257 melanoma is 90.1 µM; in the experiment with SK-MEL-28 melanoma it was above 100 µM.
`COc1cc(C(=O)c2cc(C)c3[nH]c4ccc(O)cc4c3c2C)cc(OC)c1OC`: the GI50 with SNB-75 CNS is below 0.01 µM; in the experiment on TK-10 renal, 4.24 µM; in the experiment on OVCAR-8 ovarian, 0.0317 µM; with OVCAR-3 ovarian it was below 0.01 µM; in the experiment on 786-0 renal, below 0.0184 µM; with COLO 205 colon, 0.0298 µM. Moreover, the values for the GI50 in the experiment with UACC-257 melanoma and in the experiment on SK-MEL-28 melanoma were 6.42 µM and 3.66 µM, respectively. The TGI was 8.71 µM in the experiment on SNB-75 CNS; above 100 µM in the experiment with TK-10 renal; above 100 µM in the experiment on OVCAR-8 ovarian; 2.17 µM in the experiment with OVCAR-3 ovarian; above 22.2 µM with 786-0 renal; 0.11 µM in the experiment with COLO 205 colon. In addition, the TGI in the experiment with UACC-257 melanoma and in the experiment with SK-MEL-28 melanoma was above 100 µM each time.
For `c1cc(N2CCN(c3ccc(C4=NCCCN4)cc3)CC2)ccc1C1=NCCCN1`, the GI50 in the experiment with SNB-75 CNS is above 89.4 µM; in the experiment with TK-10 renal, above 69.4 µM; in the experiment with OVCAR-8 ovarian it was above 95.7 µM; with OVCAR-3 ovarian, above 32.2 µM; with 786-0 renal, above 100 µM; with COLO 205 colon, above 45.6 µM. For the same compound, the results for the GI50 in the experiment on UACC-257 melanoma and in the experiment on SK-MEL-28 melanoma were 99 µM and above 100 µM, respectively. Further, the TGI with SNB-75 CNS, with TK-10 renal, in the experiment on OVCAR-8 ovarian, with OVCAR-3 ovarian, in the experiment on 786-0 renal and in the experiment with COLO 205 colon was above 100 µM throughout. Moreover, the TGI with UACC-257 melanoma and in the experiment on SK-MEL-28 melanoma was above 100 µM each time.
Consider `Oc1c(-c2cc(C(F)(F)F)[nH]n2)cc(Cl)c(OCc2ccc(Cl)cc2)c1-c1ccc(Cl)c(C(F)(F)F)c1`, for which the GI50 is 0.496 µM in the experiment with SNB-75 CNS; 0.56 µM with TK-10 renal; 0.192 µM in the experiment with OVCAR-8 ovarian; 0.315 µM in the experiment on OVCAR-3 ovarian; 0.647 µM in the experiment with 786-0 renal; 0.867 µM with COLO 205 colon. Further, the GI50 in the experiment on UACC-257 melanoma was 1.12 µM; with SK-MEL-28 melanoma, 0.392 µM. Also, the TGI with SNB-75 CNS came to 1.74 µM; with TK-10 renal, 5.28 µM; in the experiment on OVCAR-8 ovarian, 6.45 µM; in the experiment on OVCAR-3 ovarian, 5.5 µM; in the experiment with 786-0 renal, 2.14 µM; in the experiment with COLO 205 colon it was 1.79 µM. Further, the TGI in the experiment with UACC-257 melanoma turned out to be 3.59 µM; in the experiment with SK-MEL-28 melanoma it was 2.13 µM.
`Cc1ccncc1C(N)=O`: the GI50 in the experiment with SNB-75 CNS, in the experiment with TK-10 renal, in the experiment with OVCAR-8 ovarian, in the experiment with OVCAR-3 ovarian, with 786-0 renal and in the experiment with COLO 205 colon was above 100 µM in each case. For the same compound, the GI50 in the experiment on UACC-257 melanoma and in the experiment with SK-MEL-28 melanoma was above 100 µM each time. In addition, the TGI in the experiment on SNB-75 CNS, with TK-10 renal, in the experiment on OVCAR-8 ovarian, in the experiment on OVCAR-3 ovarian, in the experiment on 786-0 renal and in the experiment on COLO 205 colon was above 100 µM throughout. Moreover, the TGI with UACC-257 melanoma and in the experiment on SK-MEL-28 melanoma was above 100 µM each time.
